# Assay results reported in US4786723A, “7-hydroxyguanine compounds, process for preparing said compounds, and anti-tumor agent containing the same” (Kanegafuchi Chemical Industry Co., Ltd., priority 1985, dated 1988).
# Assays:
# L-1210 leukemia = assay: Anti-tumor activity against L-1210 leukemia in mice; assay type: in vivo, mouse; details: intraperitoneal, 5 days, BDF1 female mice
# Procedure: Anti-tumor activity against L-1210 leukemia in mice
# BDF1 female mice weighing 18-23 g (one group: 3 mice) were used. The mice were intraperitoneally inoculated with mouse L-1210 leukemia cells (1×10^5). […] As a control, 50 mM phosphate buffer (pH 7.4) without a test compound was intraperitoneally administered likewise. Based on the data, the life-prolongation ratio of the test compound was calculated.
# Acute toxicity = details: mouse, in vivo, ip; ICR male mice weighing 18-23 g, intraperitoneally administered for one week; read-out: 50% lethal toxicity (LD50)
# Procedure: ICR male mice weighing 18-23 g were intraperitoneally administered with the test compounds for one week, and the 50% lethal toxicity (LD50 : mg/kg) was measured by a conventional method.
SMILES,Life-prolongation ratio (L-1210 leukemia; 1.0 mg/kg/day),Life-prolongation ratio (L-1210 leukemia; 4.0 mg/kg/day),Life-prolongation ratio (L-1210 leukemia; 16.0 mg/kg/day),LD50 (Acute toxicity) [mg/kg]
"Nc1nc(O)c2c(n1)n([C@H]1C[C@H](O)[C@@H](CO)O1)c[n+]2[O-] [Compound B, 7-hydroxyguanine deoxyriboside]",120.5,160.2,168.7,172
"Nc1nc(O)c2c(n1)n([C@@H]1O[C@H](CO)[C@@H](O)[C@H]1O)c[n+]2[O-] [Compound A, 7-hydroxyguanine riboside]",128.9,148.2,148.2,192
